Laboratory results as given in ChEMBL document CHEMBL1201861, “Genomics of Drug Sensitity in Cancer screening data, Wellcome Trust Sanger Institute”.
Values joined by “and” are separate entries in the source; they are usually repeats but may differ in a detail not shown here. Identical values can stand only once. Each block holds one compound with its values, some of them ahead of it. Where a SMILES comes first, the peptide text is derived from it. The star is where a group is joined. Cbz = O=C(OCc1ccccc1)*

Tests used:
[1] = tested on: MDA-MB-134-VI; test: cells; assay type: functional, cell-based, Homo sapiens; conditions: mda-mb-134-vi
Description: SANGER: Inhibition of human MDA-MB-134-VI cell growth in a cell viability assay.

[2] = tested on: KP-N-RT-BM-1; test: SANGER: Inhibition of human KP-N-RT-BM-1 cell growth in a cell viability assay.; assay type: functional, cell-based
[3] = tested on: K052; test: cells; assay type: functional, cell-based, Homo sapiens; conditions: k052;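 further: Read-out from a cell viability assay, IC50 reflecting suppression of K052 cell growth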
Description: SANGER: Inhibition of human K052 cell growth in a cell viability assay.

[4] = tested on: NALM-6; test: cells; assay type: functional, cell-based, Homo sapiens;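 further: growth inhibition of NALM-6 cells, read out with a cell viability assay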
Description: SANGER: Inhibition of human NALM-6 cell growth in a cell viability assay.

[5] = tested on: DMS-79; test: cells; assay type: functional, cell-based, Homo sapiens; conditions: dms-79
Description: SANGER: Inhibition of human DMS-79 cell growth in a cell viability assay.

[6] = tested on: KP-N-YN; test: cells; assay type: functional, cell-based; conditions: Homo sapiens;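 further: growth inhibition of KP-N-YN cells, read out with a cell viability assay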
Description: SANGER: Inhibition of human KP-N-YN cell growth in a cell viability assay.

[7] = tested on: COR-L279; test: SANGER: Inhibition of human COR-L279 cell growth in a cell viability assay.; assay type: functional, cell-based
[8] = tested on: SNU-C1; test: cells; assay type: functional, cell-based, Homo sapiens; conditions: snu-c1;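 further: growth inhibition of SNU-C1 human cells, read out by a cell viability assay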
Description: SANGER: Inhibition of human SNU-C1 cell growth in a cell viability assay.

[9] = tested on: EB2; test: cells; assay type: functional, cell-based, Homo sapiens; conditions: eb2;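 further: growth inhibition of EB2 cells, read out with a cell viability assay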
Description: SANGER: Inhibition of human EB2 cell growth in a cell viability assay.

[10] = tested on: NCI-H345; test: cells; assay type: functional, cell-based, Homo sapiens; conditions: nci-h345;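 further: growth inhibition of NCI-H345 cells measured with a cell viability assay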
Description: SANGER: Inhibition of human NCI-H345 cell growth in a cell viability assay.

[11] = tested on: KARPAS-422; test: cells; assay type: functional, cell-based, Homo sapiens; conditions: karpas-422
Description: SANGER: Inhibition of human KARPAS-422 cell growth in a cell viability assay.

[12] = tested on: MONO-MAC-6; test: cells; assay type: functional, cell-based, Homo sapiens;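 further: cell viability assay measuring growth inhibition of human MONO-MAC-6 cells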
Description: SANGER: Inhibition of human MONO-MAC-6 cell growth in a cell viability assay.

[13] = tested on: LP-1; test: cells; assay type: functional, cell-based, Homo sapiens; conditions: lp-1;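 further: growth inhibition of human LP-1 cells, with the read-out taken from a cell viability assay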
Description: SANGER: Inhibition of human LP-1 cell growth in a cell viability assay.

[14] = tested on: SIG-M5; test: cells; assay type: functional, cell-based, Homo sapiens; conditions: sig-m5;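 further: cell viability assay read-out, measuring how strongly growth of cultured human SIG-M5 cells is inhibited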
Description: SANGER: Inhibition of human SIG-M5 cell growth in a cell viability assay.

[15] = tested on: HOP-92; test: cells; assay type: functional, cell-based; conditions: Homo sapiens;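 further: cell viability readout, with IC50 reflecting inhibition of HOP-92 cell growth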
Description: SANGER: Inhibition of human HOP-92 cell growth in a cell viability assay.

[16] = tested on: T47D; test: cells; assay type: functional, cell-based; conditions: Homo sapiens;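 further: growth inhibition of human T47D cells, measured with a cell viability assay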
Description: SANGER: Inhibition of human T47D cell growth in a cell viability assay.

[17] = tested on: MFE-296; test: SANGER: Inhibition of human MFE-296 cell growth in a cell viability assay.; assay type: functional, cell-based
[18] = tested on: 5637; test: cells; assay type: functional, cell-based; conditions: Homo sapiens
Description: SANGER: Inhibition of human 5637 cell growth in a cell viability assay.

[19] = tested on: EW-7; test: SANGER: Inhibition of human EW-7 cell growth in a cell viability assay.; assay type: functional, cell-based
[20] = tested on: PC-14; test: cells; assay type: functional, cell-based; conditions: Homo sapiens;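 further: cell viability assay measuring inhibition of PC-14 cell growth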
Description: SANGER: Inhibition of human PC-14 cell growth in a cell viability assay.

[21] = tested on: LU-99A; test: cells; assay type: functional, cell-based; conditions: Homo sapiens;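 further: growth inhibition of LU-99A cells, read out with a cell viability assay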
Description: SANGER: Inhibition of human LU-99A cell growth in a cell viability assay.

[22] = tested on: 8505C; test: cells; assay type: functional, cell-based; conditions: Homo sapiens
Description: SANGER: Inhibition of human 8505C cell growth in a cell viability assay.

[23] = tested on: CFPAC-1; test: cells; assay type: functional, cell-based; conditions: Homo sapiens;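 further: cell viability readout used to gauge suppression of CFPAC-1 cell proliferation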
Description: SANGER: Inhibition of human CFPAC-1 cell growth in a cell viability assay.

[24] = tested on: NUGC-3; test: cells; assay type: functional, cell-based; conditions: Homo sapiens;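 further: growth inhibition of human NUGC-3 cells, read out with a cell viability assay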
Description: SANGER: Inhibition of human NUGC-3 cell growth in a cell viability assay.

[25] = tested on: NCI-H2291; test: cells; assay type: functional, cell-based; conditions: Homo sapiens
Description: SANGER: Inhibition of human NCI-H2291 cell growth in a cell viability assay.

[26] = tested on: KNS-62; test: cells; assay type: functional, cell-based; conditions: Homo sapiens;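 further: inhibition of cell growth, read out with a cell viability assay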
Description: SANGER: Inhibition of human KNS-62 cell growth in a cell viability assay.

[27] = tested on: Ca-Ski; test: cells; assay type: functional, cell-based; conditions: Homo sapiens;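 further: cell viability assay measuring inhibition of Ca-Ski cell growth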
Description: SANGER: Inhibition of human Ca-Ski cell growth in a cell viability assay.

[28] = tested on: NBsusSR; test: cells; assay type: functional, cell-based; conditions: Homo sapiens;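 further: growth inhibition of the human cell line, read out with a cell viability assay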
Description: SANGER: Inhibition of human NBsusSR cell growth in a cell viability assay.

[29] = tested on: 647-V; test: cells; assay type: functional, cell-based; conditions: Homo sapiens;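 further: growth inhibition of 647-V cells, read out with a cell viability assay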
Description: SANGER: Inhibition of human 647-V cell growth in a cell viability assay.

[30] = tested on: GMS-10; test: cells; assay type: functional, cell-based; conditions: Homo sapiens;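 further: growth inhibition of GMS-10 cells, read out as cell viability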
Description: SANGER: Inhibition of human GMS-10 cell growth in a cell viability assay.

[31] = tested on: D-423MG; test: cells; assay type: functional, cell-based; conditions: Homo sapiens
Description: SANGER: Inhibition of human D-423MG cell growth in a cell viability assay.

[32] = tested on: YAPC; test: cells; assay type: functional, cell-based; conditions: Homo sapiens;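 further: growth inhibition of YAPC cells, measured with a cell viability assay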
Description: SANGER: Inhibition of human YAPC cell growth in a cell viability assay.

[33] = tested on: KYSE-140; test: cells; assay type: functional, cell-based; conditions: Homo sapiens;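 further: cell viability assay measuring growth inhibition in human KYSE-140 cells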
Description: SANGER: Inhibition of human KYSE-140 cell growth in a cell viability assay.

[34] = tested on: ZR-75-30; test: cells; assay type: functional, cell-based; conditions: Homo sapiens;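 further: growth inhibition of ZR-75-30 cells, measured with a cell viability readout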
Description: SANGER: Inhibition of human ZR-75-30 cell growth in a cell viability assay.

[35] = tested on: A549; test: cells; assay type: functional, cell-based; conditions: Homo sapiens;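 further: growth inhibition of A549 cells, read out with a cell viability assay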
Description: SANGER: Inhibition of human A549 cell growth in a cell viability assay.

[36] = tested on: SW-620; test: cells; assay type: functional, cell-based; conditions: Homo sapiens;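 further: growth inhibition of human SW-620 cells, measured by a cell viability assay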
Description: SANGER: Inhibition of human SW620 cell growth in a cell viability assay.

[37] = tested on: U-118-MG; test: cells; assay type: functional, cell-based; conditions: Homo sapiens
Description: SANGER: Inhibition of human U-118-MG cell growth in a cell viability assay.

[38] = tested on: YH-13; test: cells; assay type: functional, cell-based; conditions: Homo sapiens;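 further: cell viability readout of growth suppression in the human YH-13 cell line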
Description: SANGER: Inhibition of human YH-13 cell growth in a cell viability assay.

[39] = tested on: A-431; test: cells; assay type: functional, cell-based; conditions: Homo sapiens;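 further: growth inhibition of A-431 cells, determined with a cell viability read-out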
Description: SANGER: Inhibition of human A431 cell growth in a cell viability assay.

[40] = tested on: GAMG; test: cells; assay type: functional, cell-based; conditions: Homo sapiens;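 further: cell growth inhibition measured by a viability assay in the GAMG human cell line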
Description: SANGER: Inhibition of human GAMG cell growth in a cell viability assay.

[41] = tested on: OVCAR-8; test: cells; assay type: functional, cell-based; conditions: Homo sapiens;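 further: growth inhibition of human OVCAR-8 cells, read out by a cell viability assay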
Description: SANGER: Inhibition of human OVCAR-8 cell growth in a cell viability assay.

[42] = tested on: TGBC11TKB; test: cells; assay type: functional, cell-based; conditions: Homo sapiens;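 further: growth inhibition of human TGBC11TKB cells, measured by a cell viability assay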
Description: SANGER: Inhibition of human TGBC11TKB cell growth in a cell viability assay.

[43] = tested on: CHP-134; test: SANGER: Inhibition of human CHP-134 cell growth in a cell viability assay.; assay type: functional, cell-based
[44] = tested on: CAL-12T; test: cells; assay type: functional, cell-based; conditions: Homo sapiens;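 further: growth inhibition of human CAL-12T cells, read out with a cell viability assay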
Description: SANGER: Inhibition of human CAL-12T cell growth in a cell viability assay.

[45] = tested on: MOLT-13; test: cells; assay type: functional, cell-based; conditions: Homo sapiens;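 further: IC50 for suppression of MOLT-13 cell growth, read out with a cell viability assay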
Description: SANGER: Inhibition of human MOLT-13 cell growth in a cell viability assay.

[46] = tested on: OE33; test: cells; assay type: functional, cell-based; conditions: Homo sapiens;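 further: growth inhibition of human OE33 cells, measured by a cell viability assay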
Description: SANGER: Inhibition of human OE33 cell growth in a cell viability assay.

[47] = tested on: HLE; test: cells; assay type: functional, cell-based; conditions: Homo sapiens;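 further: growth inhibition of human HLE cells, read out by a cell viability assay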
Description: SANGER: Inhibition of human HLE cell growth in a cell viability assay.

[48] = tested on: NCI-H1048; test: cells; assay type: functional, cell-based; conditions: Homo sapiens;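 further: growth inhibition of human NCI-H1048 cells, read out with a cell viability assay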
Description: SANGER: Inhibition of human NCI-H1048 cell growth in a cell viability assay.

[49] = tested on: D-566MG; test: cells; assay type: functional, cell-based; conditions: Homo sapiens
[50] = tested on: SBC-5; test: cells; assay type: functional, cell-based; conditions: Homo sapiens;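 further: cell viability assay read-out, IC50 is the concentration that inhibits growth of the cells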
Description: SANGER: Inhibition of human SBC-5 cell growth in a cell viability assay.

[51] = tested on: CWR22R; test: cells; assay type: functional, cell-based; conditions: Homo sapiens, 22Rv1;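 further: growth inhibition of 22Rv1 cells, read out with a cell viability assay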
Description: SANGER: Inhibition of human 22RV1 cell growth in a cell viability assay.

[52] = tested on: ChaGo-K-1; test: cells; assay type: functional, cell-based; conditions: Homo sapiens;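 further: growth inhibition of ChaGo-K-1 cells, read out with a cell viability assay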
Description: SANGER: Inhibition of human ChaGo-K-1 cell growth in a cell viability assay.

[53] = tested on: NCI-H358; test: cells; assay type: functional, cell-based; conditions: Homo sapiens;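 further: growth inhibition of NCI-H358 human cells, read out with a cell viability assay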
Description: SANGER: Inhibition of human NCI-H358 cell growth in a cell viability assay.

Compound: CC(C)C[C@@H](C=O)NC(=O)[C@H](CC(C)C)NC(=O)[C@H](CC(C)C)NC(=O)OCc1ccccc1 [MG-132] (Cbz-Leu-Leu-Leu-aldehyde)
IC50 [1]: > 1 µM
IC50 [2]: > 1 µM
IC50 [3]: 0.29 µM and > 1 µM
IC50 ([4]; Homo sapiens, NALM-6): > 1 µM
IC50 ([4]; nalm-6): > 1 µM
IC50 [5]: > 1 µM
IC50 [6]: > 1 µM
IC50 ([7]; cor-l279): > 1 µM
IC50 [8]: > 1 µM
IC50 [9]: > 1 µM
IC50 [10]: > 1 µM
IC50 [11]: > 1 µM
IC50 ([12]; Homo sapiens, MONO-MAC-6): 0.536 µM
IC50 ([12]; mono-mac-6): 0.718 µM
IC50 [13]: > 1 µM
IC50 [14]: > 1 µM

IC50 [15]: > 0.512 µM
IC50 [16]: > 0.512 µM
IC50 [18]: > 0.512 µM
Compound: CO[C@@H]1[C@H](N(C)C(=O)c2ccccc2)C[C@H]2O[C@]1(C)n1c3ccccc3c3c4c(c5c6ccccc6n2c5c31)C(=O)NC4 [MIDOSTAURIN]
IC50 [17]: > 0.512 µM
IC50 ([7]; Homo sapiens, COR-L279): > 0.512 µM
IC50 [19]: > 0.512 µM

Compound: NC1(c2ccc(-c3nc4ccn5c(=O)[nH]nc5c4cc3-c3ccccc3)cc2)CCC1 [MK-2206]
IC50 [20]: > 4 µM
IC50 [21]: > 4 µM
IC50 [22]: > 4 µM
IC50 [15]: 0.872 µM
IC50 [23]: > 4 µM
IC50 [24]: > 4 µM
IC50 [25]: > 4 µM
IC50 [26]: 3.63 µM
IC50 [16]: 0.282 µM
IC50 [27]: > 4 µM
IC50 [28]: > 4 µM
IC50 [29]: > 4 µM
IC50 [6]: > 4 µM
IC50 [30]: > 4 µM
IC50 [31]: 2.41 µM
IC50 [18]: > 4 µM
IC50 [32]: > 4 µM
IC50 [33]: > 4 µM
IC50 [34]: > 4 µM
IC50 [35]: > 4 µM
IC50 [36]: > 4 µM
IC50 [37]: > 4 µM
IC50 [38]: 2.46 µM
IC50 [39]: > 4 µM
IC50 [40]: 2.24 µM
IC50 [41]: > 4 µM
IC50 [42]: > 4 µM
IC50 [43]: > 4 µM
IC50 [44]: > 4 µM
IC50 [45]: > 4 µM
IC50 [46]: > 4 µM
IC50 [47]: > 4 µM
IC50 [48]: 2.97 µM
IC50 [49]: > 4 µM
IC50 [50]: > 4 µM
IC50 [51]: > 4 µM
IC50 [52]: > 4 µM

Compound: CS(=O)(=O)N1CCN(Cc2cc3nc(-c4cccc5[nH]ncc45)nc(N4CCOCC4)c3s2)CC1 [PICTILISIB]
IC50 [20]: 3.73 µM
IC50 [21]: > 4 µM
IC50 [22]: > 4 µM
IC50 [15]: 2.75 µM
IC50 [23]: > 4 µM
IC50 [24]: > 4 µM
IC50 [25]: > 4 µM
IC50 [53]: > 4 µM
IC50 [26]: 3.92 µM
IC50 [16]: 0.598 µM
IC50 [27]: > 4 µM
IC50 [28]: 0.489 µM
IC50 [29]: > 4 µM
IC50 [6]: > 4 µM
IC50 [30]: > 4 µM
IC50 [31]: 1.1 µM
IC50 [18]: 2.71 µM
IC50 [32]: > 4 µM
IC50 [33]: > 4 µM
IC50 [34]: > 4 µM
IC50 [35]: 1.4 µM
IC50 [36]: > 4 µM
IC50 [37]: > 4 µM
IC50 [38]: 0.304 µM
IC50 [39]: 2.27 µM
IC50 [40]: 0.371 µM
IC50 [41]: > 4 µM
IC50 [42]: > 4 µM
IC50 [43]: > 4 µM
IC50 [44]: > 4 µM
IC50 [46]: > 4 µM
IC50 [47]: > 4 µM
IC50 [48]: 2.11 µM
IC50 [49]: 1.63 µM
IC50 [50]: > 4 µM
IC50 [51]: 2.46 µM
IC50 [52]: > 4 µM

Compound: CN(C)CCOc1ccc(-c2nc(-c3ccncc3)c(-c3ccc4c(c3)CC/C4=N\O)[nH]2)cc1 [SB590885]
IC50 [20]: > 5 µM
IC50 [21]: > 5 µM
IC50 [22]: > 5 µM
IC50 [15]: 1.11 µM
IC50 [23]: > 5 µM
IC50 [24]: > 5 µM
IC50 [25]: > 5 µM
IC50 [26]: > 5 µM
IC50 [16]: > 5 µM
IC50 [27]: > 5 µM
IC50 [28]: > 5 µM
IC50 [29]: > 5 µM
IC50 [6]: > 5 µM
IC50 [30]: > 5 µM
IC50 [31]: > 5 µM
IC50 [18]: > 5 µM
IC50 [32]: > 5 µM
IC50 [33]: > 5 µM
IC50 [34]: > 5 µM
IC50 [35]: > 5 µM
IC50 [36]: > 5 µM
IC50 [37]: > 5 µM
IC50 [38]: > 5 µM
IC50 [39]: > 5 µM
IC50 [40]: > 5 µM
IC50 [41]: > 5 µM
IC50 [42]: > 5 µM
IC50 [43]: > 5 µM
IC50 [44]: > 5 µM
IC50 [45]: > 5 µM
IC50 [46]: > 5 µM
IC50 [47]: > 5 µM
IC50 [48]: > 5 µM
IC50 [49]: > 5 µM
IC50 [50]: > 5 µM
IC50 [51]: > 5 µM
IC50 [52]: > 5 µM
